Laboratory results taken from patent US20250163104A1, “MACROCYCLIC IMMUNOMODULATORS” (priority 2021, published 2025).
*1 amine or outer side, *2 acyl side, *3 side chain or, on linkers, in order; H or OH if unused. Where a SMILES comes first, the peptide text is derived from it. Bridges are numbered along the chain shown (N, C = ends). [ ]: non-standard residue; d: D form. The star is where a group is joined. ξ: configuration not given here. Phe(4-COOH) = N[C@@H](Cc1ccc(C(=O)O)cc1)C(=O)O; Bip = N[C@@H](Cc1ccc(-c2ccccc2)cc1)C(=O)O; Phe(3-Cl) = N[C@@H](Cc1cccc(Cl)c1)C(=O)O; Phe(3-Me) = Cc1cccc(C[C@H](N)C(=O)O)c1; βAsp = O=C(O)[C@H](CC(=O)[*:2])N[*:1]; Val(3-OH) = CC(C)(O)[C@H](N)C(=O)O; hArg = N=C(N)NCCCC[C@H](N)C(=O)O; 4Pal = N[C@@H](Cc1ccncc1)C(=O)O; 2Thi = N[C@@H](Cc1cccs1)C(=O)O; Cha = N[C@@H](CC1CCCCC1)C(=O)O; Cit = NC(=O)NCCC[C@H](N)C(=O)O; NMeN = CN[C@@H](CC(N)=O)C(=O)O; dCha = N[C@H](CC1CCCCC1)C(=O)O; Thr(3ξ) = CC(O)[C@H](N)C(=O)O; Carboxymethyl = O=C(O)C*; Orn = NCCC[C@H](N)C(=O)O; Pra = C#CC[C@H](N)C(=O)O; Dab = NCC[C@H](N)C(=O)O; Dap = NC[C@H](N)C(=O)O

target: T1, human PD-1 / PD-L1-Ig binding on Jurkat cell line over-expressing human PD-1 (Jurkat-PD-1) (Homo sapiens, UniProt Q15116); test: Jurkat-PD-1 Cell Binding High-Content Screening Assay (CBA); assay type: cell-based; conditions: Jurkat-PD-1 cells, PE-labeled PD-L1-Ig 20 nM final; read-out: Jurkat HPD1_PDL1 IC50
T1 construct: expressed in transfected cells; host or cells: Jurkat
Procedure, shortened: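 Cell-bound PE-labeled PD-L1-Ig (20 nM final, 1 h) measured by high-content imaging after fixation and Hoechst 33342 counterstain. Compound was applied first for 2 h at 37° C. to Jurkat cells over-expressing human PD-1 in DMEM with 10% FCS.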

T1 sequence (Q15116 25-288): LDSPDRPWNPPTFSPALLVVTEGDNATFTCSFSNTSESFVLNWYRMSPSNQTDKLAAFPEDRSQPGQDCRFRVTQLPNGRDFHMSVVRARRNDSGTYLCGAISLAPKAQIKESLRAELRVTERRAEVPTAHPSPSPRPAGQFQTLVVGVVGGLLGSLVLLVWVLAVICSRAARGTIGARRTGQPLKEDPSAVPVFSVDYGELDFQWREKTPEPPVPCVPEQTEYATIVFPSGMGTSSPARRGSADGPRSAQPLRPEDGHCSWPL

SMILES | IC50 [µM]
CC(C)[C@@H]1NC(=O)[C@H](Cc2c[nH]c3ccccc23)NC(=O)[C@H](CC(=O)O)NC(=O)[C@H](Cc2ccncc2)NC(=O)[C@H](Cc2ccc(OCC(=O)O)cc2)NC(=O)CSC[C@@H](C(=O)N[C@@H](C)C(N)=O)NC(=O)[C@H]([C@@H](C)O)NC(=O)[C@H](C(C)C)NC(=O)[C@H](CC2CCCCC2)NC(=O)[C@H](CCN)NC(=O)[C@@H](CC2CCCCC2)NC(=O)[C@H](CCCN)NC(=O)[C@H](CCCNC(N)=O)NC(=O)[C@H](Cc2ccc(-c3ccccc3)cc2)NC1=O [Compound 1645] ({CH2CO}-Y(Carboxymethyl)[4Pal]DWV[Bip][Cit][Orn][dCha][Dab][Cha]VTCA-NH2; thioether N-14) | 0.0203
Cc1cccc(C[C@@H]2NC(=O)[C@H](CC(=O)O)NC(=O)[C@H](Cc3ccc(C(=O)O)cc3)NC(=O)[C@H](Cc3ccc(OCC(=O)O)cc3)NC(=O)CSC[C@@H](C(=O)N[C@H](CCC(=O)O)C(=O)O)NC(=O)[C@H](CCCN)NC(=O)[C@H](C(C)C)NC(=O)[C@H](CC3CCCCC3)NC(=O)[C@H](CCN)NC(=O)[C@@H](CC(C)C)NC(=O)[C@H](CCN)NC(=O)[C@H](C(C)C)NC(=O)[C@H](Cc3ccc(-c4ccccc4)cc3)NC(=O)[C@H](C(C)C)NC2=O)c1 [Compound 2590] ({CH2CO}-Y(Carboxymethyl)[Phe(4-COOH)]D[Phe(3-Me)]V[Bip]V[Dab][dL][Dab][Cha]V[Orn]C[dE]-OH; thioether N-14) | 0.0302
Cc1cccc(C[C@@H]2NC(=O)[C@H](CC(=O)O)NC(=O)[C@H](Cc3ccc(OCC(=O)O)cc3)NC(=O)[C@H](Cc3cnc[nH]3)NC(=O)CSC[C@@H](C(=O)N[C@H](C)C(N)=O)NC(=O)[C@H](C(C)O)NC(=O)[C@H](C(C)(C)O)NC(=O)[C@H](CC3CCCCC3)NC(=O)[C@H](CCN)NC(=O)[C@@H](CC(C)C)NC(=O)[C@H](CCCN)NC(=O)[C@H](Cc3ccc(OCC(=O)O)cc3)NC(=O)[C@H](Cc3ccc(-c4ccccc4)cc3)NC(=O)[C@H](Cc3ccc(OCC(=O)O)cc3)NC2=O)c1 (stereo partly drawn) [Compound 2650] ({CH2CO}-HY(Carboxymethyl)D[Phe(3-Me)]Y(Carboxymethyl)[Bip]Y(Carboxymethyl)[Orn][dL][Dab][Cha][Val(3-OH)][Thr(3ξ)]C[dA]-NH2; thioether N-14) | 0.0385
CC(C)C[C@H]1NC(=O)[C@H](CCCN)NC(=O)[C@H](C(C)C)NC(=O)[C@H](Cc2ccc(-c3ccccc3)cc2)NC(=O)[C@H](C(C)C)NC(=O)[C@H](Cc2c[nH]c3ccccc23)NC(=O)[C@H](CC(=O)O)NC(=O)[C@H](Cc2ccc(OCC(=O)O)cc2)NC(=O)[C@H](CCCCNC(=N)N)NC(=O)CSC[C@@H](C(=O)N(C)[C@@H](CC(N)=O)C(N)=O)NC(=O)[C@H](CO)NC(=O)[C@H](C(C)C)NC(=O)[C@H](CC2CCCCC2)NC(=O)[C@H](CCN)NC1=O [Compound 2567] ({CH2CO}-[hArg]Y(Carboxymethyl)DWV[Bip]V[Orn][dL][Dab][Cha]VSC[NMeN]-NH2; thioether N-14) | 0.0239
C#CC[C@H](NC(=O)C[C@H](NC(=O)[C@H](CCN)NC(=O)[C@@H]1CSCC(=O)N[C@@H](Cc2ccc(OCC(=O)O)cc2)C(=O)N[C@@H](Cc2ccncc2)C(=O)N[C@@H](CC(=O)O)C(=O)N[C@@H](Cc2cccc(C)c2)C(=O)N[C@@H](C(C)C)C(=O)N[C@@H](Cc2ccc(-c3ccccc3)cc2)C(=O)N[C@@H](CCCNC(N)=O)C(=O)N[C@@H](CCCN)C(=O)N[C@H](CC(C)C)C(=O)N[C@@H](CCN)C(=O)N[C@@H](CC2CCCCC2)C(=O)N[C@@H](C(C)C)C(=O)N[C@@H]([C@@H](C)O)C(=O)N1)C(=O)O)C(N)=O [Compound 1768] ({CH2CO}-Y(Carboxymethyl)[4Pal]D[Phe(3-Me)]V[Bip][Cit][Orn][dL][Dab][Cha]VTC[Dab][βAsp][Pra]-NH2; thioether N-14) | 0.0101
CC(C)C[C@H]1NC(=O)[C@H](CCCN)NC(=O)[C@H](C(C)C)NC(=O)[C@H](Cc2ccc(-c3ccccc3)cc2)NC(=O)[C@H](C(C)C)NC(=O)[C@H](Cc2cccc(Cl)c2)NC(=O)[C@H](CC(=O)O)NC(=O)[C@H](Cc2ccncc2)NC(=O)[C@H](Cc2ccc(OCC(=O)O)cc2)NC(=O)CSC[C@@H](C(=O)N[C@@H](C)C(N)=O)NC(=O)[C@H]([C@@H](C)O)NC(=O)[C@H](C(C)C)NC(=O)[C@H](CC2CCCCC2)NC(=O)[C@H](CCN)NC1=O [Compound 1570] ({CH2CO}-Y(Carboxymethyl)[4Pal]D[Phe(3-Cl)]V[Bip]V[Orn][dL][Dab][Cha]VTCA-NH2; thioether N-14) | 0.0184
Cc1cccc(C[C@@H]2NC(=O)[C@H](CC(=O)O)NC(=O)[C@H](Cc3ccc(C(=O)O)cc3)NC(=O)[C@H](Cc3ccncc3)NC(=O)CSC[C@@H](C(=O)N[C@@H](CO)C(N)=O)NC(=O)[C@H](CCC(=O)O)NC(=O)[C@H](C(C)C)NC(=O)[C@H](CC3CCCCC3)NC(=O)[C@H](CCN)NC(=O)[C@@H](CC(C)C)NC(=O)[C@H](CCCN)NC(=O)[C@H](Cc3ccc(OCC(=O)O)cc3)NC(=O)[C@H](Cc3ccc(-c4ccccc4)cc3)NC(=O)[C@H](Cc3ccc(OCC(=O)O)cc3)NC2=O)c1 [Compound 2311] ({CH2CO}-[4Pal][Phe(4-COOH)]D[Phe(3-Me)]Y(Carboxymethyl)[Bip]Y(Carboxymethyl)[Orn][dL][Dab][Cha]VECS-NH2; thioether N-14) | 0.0117
CC(C)C[C@@H]1NC(=O)[C@H](CCN)NC(=O)[C@@H](CC(C)C)NC(=O)[C@H](CCCN)NC(=O)[C@H](C(C)C)NC(=O)[C@H](Cc2ccc(-c3ccccc3)cc2)NC(=O)[C@H](C(C)C)NC(=O)[C@H](Cc2c[nH]c3ccccc23)NC(=O)[C@H](CC(N)=O)NC(=O)[C@H](Cc2ccc(O)cc2)NC(=O)[C@H](CC(N)=O)NC(=O)CSC[C@@H](C(=O)NCC(N)=O)NC(=O)[C@H]([C@@H](C)O)NC(=O)[C@H](C(C)C)NC1=O [Compound 1084] ({CH2CO}-NYNWV[Bip]V[Orn][dL][Dab]LVTCG-NH2; thioether N-14) | 0.0289
CC(C)C[C@H]1NC(=O)[C@H](CCCN)NC(=O)[C@H](CCCNC(N)=O)NC(=O)[C@H](Cc2ccc(-c3ccccc3)cc2)NC(=O)[C@H](C(C)C)NC(=O)[C@H](Cc2c[nH]c3ccccc23)NC(=O)[C@H](CC(=O)O)NC(=O)[C@H](Cc2ccc(O)cc2)NC(=O)[C@H](CN)NC(=O)CSC[C@@H](C(=O)N[C@@H](C)C(N)=O)NC(=O)[C@H]([C@@H](C)O)NC(=O)[C@H](C(C)C)NC(=O)[C@H](CC2CCCCC2)NC(=O)[C@H](CCN)NC1=O [Compound 1157] | 0.0106
CC(C)C[C@@H]1NC(=O)[C@H](CCCCN)NC(=O)[C@@H](CC(C)C)NC(=O)[C@H](CCCN)NC(=O)[C@H](Cc2cnc[nH]2)NC(=O)[C@H](Cc2ccc(-c3ccccc3)cc2)NC(=O)[C@H](C(C)C)NC(=O)[C@H](Cc2c[nH]c3ccccc23)NC(=O)[C@H](CC(=O)O)NC(=O)[C@H](Cc2ccc(O)cc2)NC(=O)[C@H](CC(N)=O)NC(=O)CSC[C@@H](C(=O)N[C@@H](C)C(N)=O)NC(=O)[C@H](CO)NC(=O)[C@H](C(C)C)NC1=O [Compound 1134] ({CH2CO}-NYDWV[Bip]H[Orn][dL]KLVSCA-NH2; thioether N-14) | 0.0321
CC(C)C[C@H]1NC(=O)[C@H](CCCN)NC(=O)[C@H](CCC(=O)O)NC(=O)[C@H](Cc2ccc(-c3ccccc3)cc2)NC(=O)[C@H](C(C)C)NC(=O)[C@H](Cc2cccs2)NC(=O)[C@H](CC(=O)O)NC(=O)[C@H](Cc2cccs2)NC(=O)[C@H](Cc2ccccc2)NC(=O)CSC[C@@H](C(=O)N[C@@H](C)C(N)=O)NC(=O)[C@H]([C@@H](C)O)NC(=O)[C@H](C(C)C)NC(=O)[C@H](CC2CCCCC2)NC(=O)[C@H](CCN)NC1=O [Compound 2204] ({CH2CO}-F[2Thi]D[2Thi]V[Bip]E[Orn][dL][Dab][Cha]VTCA-NH2; thioether N-14) | 0.0244
CC(C)C[C@H]1NC(=O)[C@H](CCCN)NC(=O)[C@H](CCCNC(N)=O)NC(=O)[C@H](Cc2ccc(-c3ccccc3)cc2)NC(=O)[C@H](C(C)C)NC(=O)[C@H](Cc2c[nH]c3ccccc23)NC(=O)[C@H](CC(=O)O)NC(=O)[C@H](Cc2ccc(OCC(=O)O)cc2)NC(=O)[C@H](CN)NC(=O)CSC[C@@H](C(=O)N[C@@H](C)C(N)=O)NC(=O)[C@H]([C@@H](C)O)NC(=O)[C@H](C(C)C)NC(=O)[C@H](Cc2ccncc2)NC(=O)[C@H](CCN)NC1=O [Compound 1345] ({CH2CO}-[Dap]Y(Carboxymethyl)DWV[Bip][Cit][Orn][dL][Dab][4Pal]VTCA-NH2; thioether N-14) | 0.236
CCC(C)[C@@H]1NC(=O)[C@H](Cc2ccc(-c3ccccc3)cc2)NC(=O)[C@H](C(C)C)NC(=O)[C@H](Cc2cccc(C)c2)NC(=O)[C@H](CC(=O)O)NC(=O)[C@H](Cc2ccc(-c3cccc(C(=O)O)c3)cc2)NC(=O)[C@H](Cc2ccncc2)NC(=O)CSC[C@@H](C(=O)N[C@@H](C)C(N)=O)NC(=O)[C@H]([C@@H](C)O)NC(=O)[C@H](C(C)C)NC(=O)[C@H](CC2CCCCC2)NC(=O)[C@H](CCN)NC(=O)[C@@H](CC(C)C)NC(=O)[C@H](CCCN)NC1=O (some centres unmarked) [Compound 2226] | 0.0254
CC(C)C[C@H]1NC(=O)[C@H](CCCN)NC(=O)[C@H](C(C)C)NC(=O)[C@H](Cc2ccc(-c3ccccc3)cc2)NC(=O)[C@H](C(C)C)NC(=O)[C@H](Cc2c[nH]c3ccccc23)NC(=O)[C@H](CC(=O)O)NC(=O)[C@H](Cc2ccc(O)cc2)NC(=O)[C@H](CCCNC(=N)N)NC(=O)CSC[C@@H](C(=O)N[C@@H](C)C(N)=O)NC(=O)[C@H](C(C)O)NC(=O)[C@H](C(C)C)NC(=O)[C@H](CC2CCCCC2)NC(=O)[C@H](CCN)NC1=O (stereo partly drawn) [Compound 2524] ({CH2CO}-RYDWV[Bip]V[Orn][dL][Dab][Cha]V[Thr(3ξ)]CA-NH2; thioether N-14) | 0.0122
